In PubChem BioAssay (NCI):
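A five-concentration, 48-hour dose response in 96-well plates underlies each endpoint, interpolated linearly between surrounding concentrations. The concentration for 50% growth inhibition is given as GI50. TGI is the concentration that stops growth completely.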

How the values were obtained:
Assay in all cases: NCI tumour cell line growth inhibition, 48 h; in the data active = GI50 below about 0.43 µM; inactive = the rest
MOLT-4 leukemia = system: MOLT-4 leukemia
CAKI-1 renal = system: CAKI-1 renal
SF-268 CNS = system: SF-268 CNS
IGROV1 ovarian = system: IGROV1 ovarian
MDA-MB-435 = system: MDA-MB-435
OVCAR-8 ovarian = system: OVCAR-8 ovarian
HL-60(TB) leukemia = system: HL-60(TB) leukemia
HOP-62 NSCLC = system: HOP-62 NSCLC
KM12 colon = system: KM12 colon
HS 578T breast = system: HS 578T breast
HCT-116 colon = system: HCT-116 colon
HT29 colon = system: HT29 colon
SK-MEL-28 melanoma = system: SK-MEL-28 melanoma
SNB-19 CNS = system: SNB-19 CNS
NCI-H522 lung = system: NCI-H522 lung
SNB-75 CNS = system: SNB-75 CNS
M14 melanoma = system: M14 melanoma
UACC-62 melanoma = system: UACC-62 melanoma
NCI-H23 lung = system: NCI-H23 lung
UO-31 renal = system: UO-31 renal
RXF 393 renal = system: RXF 393 renal
MALME-3M melanoma = system: MALME-3M melanoma
SW-620 colon = system: SW-620 colon
HCT-15 colon = system: HCT-15 colon
A549 NSCLC = system: A549 NSCLC
SF-295 CNS = system: SF-295 CNS
SK-MEL-5 melanoma = system: SK-MEL-5 melanoma
NCI-H226 lung = system: NCI-H226 lung
U251 CNS = system: U251 CNS
MCF7 breast = system: MCF7 breast
RPMI-8226 leukemia = system: RPMI-8226 leukemia
DU-145 prostate = system: DU-145 prostate
LOX IMVI melanoma = system: LOX IMVI melanoma
SR leukemia = system: SR leukemia
UACC-257 melanoma = system: UACC-257 melanoma
PC-3 prostate = system: PC-3 prostate
MDA-MB-231 breast = system: MDA-MB-231 breast
TK-10 renal = system: TK-10 renal
OVCAR-5 ovarian = system: OVCAR-5 ovarian
OVCAR-4 ovarian = system: OVCAR-4 ovarian
SF-539 CNS = system: SF-539 CNS
786-0 renal = system: 786-0 renal
NCI/ADR-RES ovarian = system: NCI/ADR-RES ovarian
EKVX NSCLC = system: EKVX NSCLC
NCI-H460 lung = system: NCI-H460 lung
SN12C renal = system: SN12C renal
ACHN renal = system: ACHN renal
COLO 205 colon = system: COLO 205 colon
SK-MEL-2 melanoma = system: SK-MEL-2 melanoma
SK-OV-3 ovarian = system: SK-OV-3 ovarian
T-47D breast = system: T-47D breast
OVCAR-3 ovarian = system: OVCAR-3 ovarian
K-562 leukemia = system: K-562 leukemia
A498 renal = system: A498 renal
HCC-2998 colon = system: HCC-2998 colon
HOP-92 NSCLC = system: HOP-92 NSCLC

C/C(=C\COP(=O)(O)OP(=O)(O)O)CCCOCc1ccccc1
> 100 µM: TGI (MOLT-4 leukemia) | TGI (CAKI-1 renal) | TGI (SF-268 CNS) | TGI (IGROV1 ovarian) | TGI (MDA-MB-435) | TGI (OVCAR-8 ovarian) | TGI (HL-60(TB) leukemia) | TGI (HOP-62 NSCLC) | TGI (KM12 colon) | TGI (HS 578T breast) | TGI (HCT-116 colon) | TGI (HT29 colon) | TGI (SK-MEL-28 melanoma) | TGI (SNB-19 CNS) | TGI (NCI-H522 lung) | TGI (SNB-75 CNS) | TGI (M14 melanoma) | TGI (UACC-62 melanoma) | TGI (NCI-H23 lung) | TGI (UO-31 renal) | TGI (RXF 393 renal) | TGI (MALME-3M melanoma) | TGI (SW-620 colon) | TGI (HCT-15 colon) | TGI (A549 NSCLC) | TGI (SF-295 CNS) | TGI (SK-MEL-5 melanoma) | TGI (NCI-H226 lung) | TGI (U251 CNS) | TGI (MCF7 breast) | TGI (RPMI-8226 leukemia) | TGI (DU-145 prostate) | TGI (LOX IMVI melanoma) | TGI (SR leukemia) | TGI (UACC-257 melanoma) | TGI (PC-3 prostate) | TGI (MDA-MB-231 breast) | TGI (TK-10 renal) | TGI (OVCAR-5 ovarian) | TGI (OVCAR-4 ovarian) | TGI (SF-539 CNS) | TGI (786-0 renal) | TGI (NCI/ADR-RES ovarian) | TGI (EKVX NSCLC) | TGI (NCI-H460 lung) | TGI (SN12C renal) | TGI (ACHN renal) | TGI (COLO 205 colon) | TGI (SK-MEL-2 melanoma) | TGI (SK-OV-3 ovarian) | TGI (T-47D breast) | TGI (OVCAR-3 ovarian) | TGI (K-562 leukemia)

O=C(Nc1ccc(Cl)cc1)Nc1ccc(Cl)c(C(F)(F)F)c1
6.8 µM: TGI (SK-OV-3 ovarian)
10.8 µM: TGI (PC-3 prostate)
7.85 µM: TGI (MCF7 breast)
2.95 µM: TGI (K-562 leukemia)
5.33 µM: TGI (HCT-116 colon)
12.4 µM: TGI (DU-145 prostate)
7.73 µM: TGI (SNB-75 CNS)
12.6 µM: TGI (SNB-19 CNS)
8.13 µM: TGI (MDA-MB-435)
6.44 µM: TGI (NCI-H460 lung)
10.7 µM: TGI (HT29 colon) | TGI (786-0 renal)
18.8 µM: TGI (OVCAR-8 ovarian)
14.7 µM: TGI (UACC-62 melanoma)
10.2 µM: TGI (UO-31 renal)
7.76 µM: TGI (OVCAR-3 ovarian)
11.8 µM: TGI (UACC-257 melanoma)
5.03 µM: TGI (HOP-92 NSCLC)
8.31 µM: TGI (HS 578T breast)
4.4 µM: TGI (MOLT-4 leukemia)
8.84 µM: TGI (CAKI-1 renal)
3.91 µM: TGI (HL-60(TB) leukemia) | TGI (MDA-MB-231 breast)
19.2 µM: TGI (TK-10 renal)
11.9 µM: TGI (SK-MEL-28 melanoma)
11 µM: TGI (NCI-H23 lung) | TGI (EKVX NSCLC)
29.1 µM: TGI (NCI-H522 lung)
9.66 µM: TGI (SW-620 colon)
12.3 µM: TGI (M14 melanoma)
6.26 µM: TGI (A498 renal)
11.6 µM: TGI (HCT-15 colon) | TGI (LOX IMVI melanoma)
6.56 µM: TGI (KM12 colon)
10.5 µM: TGI (NCI/ADR-RES ovarian) | TGI (SN12C renal)
11.4 µM: TGI (U251 CNS) | TGI (OVCAR-4 ovarian)
10.1 µM: TGI (SF-539 CNS)
12.2 µM: TGI (SF-268 CNS)
2.99 µM: TGI (SK-MEL-5 melanoma)
12.1 µM: TGI (ACHN renal)
10 µM: TGI (SK-MEL-2 melanoma)
8.81 µM: TGI (HCC-2998 colon)
14.9 µM: TGI (OVCAR-5 ovarian)
11.3 µM: TGI (HOP-62 NSCLC)
5.49 µM: TGI (T-47D breast)
3.01 µM: TGI (COLO 205 colon)
inactive: GI50 (A498 renal) 2.38 µM | GI50 (MOLT-4 leukemia) 1.72 µM | GI50 (CAKI-1 renal) 2.27 µM | GI50 (SF-268 CNS) 3.54 µM | GI50 (IGROV1 ovarian) 4.01 µM | GI50 (MDA-MB-435) 2.45 µM | GI50 (OVCAR-8 ovarian) 4.04 µM | GI50 (HL-60(TB) leukemia) 1.74 µM | GI50 (HOP-62 NSCLC) 3 µM | GI50 (KM12 colon) 2.21 µM | GI50 (HS 578T breast) 2.68 µM | GI50 (HCC-2998 colon) 3.12 µM | GI50 (HCT-116 colon) 1.95 µM | GI50 (HT29 colon) 2.86 µM | GI50 (SK-MEL-28 melanoma) 3.51 µM | GI50 (SNB-19 CNS) 3.21 µM | GI50 (NCI-H522 lung) 4.05 µM | GI50 (SNB-75 CNS) 1.97 µM | GI50 (M14 melanoma) 3.59 µM | GI50 (UACC-62 melanoma) 2.71 µM | GI50 (NCI-H23 lung) 2.21 µM | GI50 (UO-31 renal) 2.54 µM | GI50 (SW-620 colon) 2.93 µM | GI50 (HCT-15 colon) 2.65 µM | GI50 (A549 NSCLC) 3.39 µM | GI50 (SF-295 CNS) 1.97 µM | GI50 (SK-MEL-5 melanoma) 1.55 µM | GI50 (U251 CNS) 2.8 µM | GI50 (MCF7 breast) 2.16 µM | GI50 (DU-145 prostate) 3.66 µM | GI50 (LOX IMVI melanoma) 3.31 µM | GI50 (UACC-257 melanoma) 3.44 µM | GI50 (PC-3 prostate) 2.35 µM | GI50 (MDA-MB-231 breast) 1.75 µM | GI50 (TK-10 renal) 4.25 µM | GI50 (OVCAR-5 ovarian) 4.52 µM | GI50 (OVCAR-4 ovarian) 2.33 µM | GI50 (SF-539 CNS) 2.61 µM | GI50 (HOP-92 NSCLC) 1.55 µM | GI50 (786-0 renal) 2.75 µM | GI50 (NCI/ADR-RES ovarian) 3.07 µM | GI50 (EKVX NSCLC) 2.48 µM | GI50 (NCI-H460 lung) 1.7 µM | GI50 (SN12C renal) 2.29 µM | GI50 (ACHN renal) 3.04 µM | GI50 (COLO 205 colon) 1.63 µM | GI50 (SK-MEL-2 melanoma) 3.25 µM | GI50 (SK-OV-3 ovarian) 2.37 µM | GI50 (T-47D breast) 1.22 µM | GI50 (OVCAR-3 ovarian) 1.86 µM | GI50 (K-562 leukemia) 1.06 µM
15.8 µM: TGI (A549 NSCLC)
8.87 µM: TGI (SF-295 CNS)
16.2 µM: TGI (IGROV1 ovarian)
